{"source": "paper PMC6105804", "about": "“In Vitro and In Vivo Evaluation of APX001A/APX001 and Other Gwt1 Inhibitors against Cryptococcus” (Antimicrobial Agents and Chemotherapy, 2018)", "key": {"C. neoformans strain H99 [1]": {"tested_on": "C. neoformans strain H99", "experiment": "Murine cryptococcal meningitis model with ABT pretreatment (preliminary experiment)", "type": "in vivo, Cryptococcus neoformans", "procedure": "In a preliminary experiment, the efficacies of APX001, APX2096, and APX2097 were evaluated in the disseminated model of CM (n = 5 mice/cohort). ABT at 100 mg/kg was administered orally to male CD-1 mice 2 h prior to APX compound administration. Mice were injected with 6.9 × 10^4 CFU of C. neoformans strain H99 per mouse via the lateral tail vein at time zero. Treatment with each prodrug was initiated at about 1 h postinfection by i.p. administration and continued daily for 7 days, with 100-mg/kg ABT being administered orally 2 h prior to each APX compound dose.\n(§1) ABT at 100 mg/kg was administered orally to male CD-1 mice at 2 h prior to each APX compound dose. Mice were injected with 6.9 × 10^4 CFU of C. neoformans strain H99 per mouse via the lateral tail vein at time zero. Treatment with the APX compound was initiated at about 1 h postinfection by i.p. administration and continued for 7 days, with 100-mg/kg ABT being administered orally 2 h prior to each APX compound dose. […] Fungal burden data were log10 transformed and evaluated using Kruskal-Wallis tests with Dunn's multiple-comparison test for post hoc analysis (Prism software, v5; GraphPad Software, Inc., San Diego, CA). A P value of ≤0.05 was considered statistically significant (*, P ≤ 0.05; **, P ≤ 0.01). The 95% confidence interval (CI) is presented.\n(§2) C. neoformans strain H99 was grown in yeast extract-peptone-dextrose broth at 30°C on a shaker (220 rpm) for 24 h, centrifuged (1,980 relative centrifugal force), and washed twice in phosphate-buffered saline (PBS), resuspended in PBS, and quantified by hemacytometric count. Male CD-1 mice were infected with ∼5 × 10^4 CFU per mouse via lateral tail vein injection of 100 μl. Mice were weighed, and treatment was begun within 1 h after infection. Treatments were administered daily for 7 days. Mice were weighed daily and observed for acute and chronic adverse symptoms. Mice were sacrificed on day 8, and the brain and left lung were homogenized and cultured for quantitative determination of the tissue burden (number of CFU per gram of tissue). Tissues were homogenized for 25 s in 1 ml phosphate-buffered saline using two 6.5-mm steel beads and a Mini-Beadbeater 16 apparatus (Biospec Products, Inc., Bartlesville, OK) and serially diluted in 10-fold steps. Aliquots (100 μl) of homogenate were plated and incubated for 3 to 7 days at 37°C. Fungal burden data were log10 transformed and evaluated using Kruskal-Wallis tests with Dunn's multiple-comparison test for post hoc analysis (Prism software, v5; GraphPad Software, Inc., San Diego, CA). A P value of ≤0.05 was considered statistically significant."}, "C. albicans": {"tested_on": "C. albicans", "design": "method as in ref 23 = [23]; 23. Zhao Y , Lee M , Lee A , Paderu P , Park S , Perlin DS 2018 APX001 is effective against echinocandin and multi-drug resistant Candida isolates . Abstr 28th ECCMID , Madrid, Spain .", "details": "after ABT administration, after 48 h; cited from earlier work"}, "C. neoformans strain H99 [2]": {"tested_on": "C. neoformans strain H99", "experiment": "Murine model of cryptococcal meningitis, APX001 alone and with FLC (no ABT)", "type": "in vivo, Cryptococcus neoformans", "procedure": "The efficacies of APX001 and FLC were evaluated in a well-established mouse CM model ([34]). Since Cryptococcus infections can be hematogenously disseminated to other organs, the numbers of CFU in both lung and brain tissue were evaluated. Male CD-1 mice were infected with 5.9 × 10^4 CFU of C. neoformans strain H99 via lateral tail vein injection. Mice were assigned to four groups (n = 10), consisting of (i) treatment with APX001, (ii) treatment with APX001 plus FLC, (iii) treatment with FLC, or (iv) no treatment as a control. Treatment was initiated within 1 h after infection. APX001 was administered by oral gavage at a dose of 390 mg/kg thrice daily (TID), with each dose being administered roughly 8 h apart. […] FLC (2 mg/ml; Sagent Pharmaceuticals, Schaumburg, IL) was administered at a dose of 80 mg/kg/day intraperitoneally (i.p.).\nBrain and lung burdens in mice were measured at 7 days postinfection with C. neoformans H99. Male CD-1 mice were infected with 5.9 × 10^4 CFU of C. neoformans strain H99 via the lateral tail vein. Treatment was initiated at about 1 h postinfection and continued for 7 days. APX001 was administered by oral gavage at a dose of 390 mg/kg thrice daily, with each dose being administered roughly 8 h apart. FLC (2 mg/ml; Sagent Pharmaceuticals, Schaumburg, IL) was administered at a dose of 80 mg/kg/day i.p. once daily. Fungal burden data were log10 transformed and evaluated using Kruskal-Wallis tests with Dunn's multiple-comparison test for post hoc analysis (Prism software, v5; GraphPad Software, Inc., San Diego, CA). A P value of ≤0.05 was considered statistically significant (*, P ≤ 0.05; **, P ≤ 0.01; ***, P ≤ 0.001). The 95% confidence interval (CI) is presented.\nas §2"}, "[3]": {"experiment": "Acute toxicity and survival observed in the CM model with ABT", "type": "in vivo, mouse", "details": "n = 5 mice/cohort; 7 days i.p. + ABT", "procedure": "as §1, §2"}, "[4]": {"design": "method as in ref 11, 12 = [11]; 11. Hodges MR , Ople E , Shaw KJ , Mansbach RS , van Marle S , van Hoogdalem E , Kramer W , Wedel P 2017 Phase 1 study to assess safety, tolerability and pharmacokinetics of single and multiple oral d || [12]; 12. Hodges MR , Ople E , Shaw KJ , Mansbach RS , van Marle S , van Hoogdalem E , Wedel P , Kramer W 2017 First-in-human study to assess safety, tolerability and pharmacokinetics of APX001 administered", "details": "cited from earlier work"}, "[5]": {"from_the_text": "For pharmacokinetic and efficacy studies, the prodrugs APX001, APX2096, APX2097, and APX2104 (Amplyx Pharmaceuticals) were used. […] The prodrugs APX2096, APX2097, and APX2104 were formulated similarly to enable oral and i.p. dosing of compounds for pharmacokinetic and efficacy studies."}, "[6]": {"details": "80 mg/kg in the presence of ABT"}, "[7]": {"details": "85 mg/kg QD i.p. + ABT 100 mg/kg p.o., 7 days"}, "[8]": {"details": "APX001 390 mg/kg TID oral plus FLC 80 mg/kg/day i.p., 7 days"}, "[9]": {"details": "monotherapy 7 days, APX001 390 mg/kg TID oral gavage, FLC 80 mg/kg/day i.p., male CD-1 mice"}}, "note": "Where “and” joins values, the source holds several entries; their conditions need not be identical. Identical values can stand only once."}
{"smiles": "Nc1c(-c2cc(Cc3ccc(COc4ccccn4)cc3)no2)ccc[n+]1COP(=O)([O-])O", "note": "[APX001]", "values": [{"measurement": "reduction in lung fungal burden", "setting": "C. neoformans strain H99 [1]; 34 mg/kg QD i.p. + ABT 100 mg/kg p.o., 7 days", "value": "neither the 34-mg/kg nor the 85-mg/kg dose of APX001 achieved a statistically significant reduction"}, {"measurement": "reduction in brain fungal burden", "setting": "C. neoformans strain H99 [1]; [6]", "value": 0.85, "unit": "log10 CFU/g"}, {"measurement": "reduction in lung fungal burden", "setting": "C. neoformans strain H99 [1]; [6]", "value": 0.9, "unit": "log10 CFU/g"}, {"measurement": "reduction in brain fungal burden", "setting": "C. neoformans strain H99 [1]; [7]", "value": 0.85, "unit": "log10 CFU/g"}, {"measurement": "reduction in lung fungal burden", "setting": "C. neoformans strain H99 [1]; [7]", "value": "neither the 34-mg/kg nor the 85-mg/kg dose of APX001 achieved a statistically significant reduction"}, {"measurement": "reduction of C. albicans kidney burdens", "setting": "C. albicans", "value": "6.0 ± 0.1", "unit": "log10 CFU/g kidney tissue"}, {"measurement": "reduction in brain fungal burden vs untreated control, combination of APX001 and FLC", "setting": "C. neoformans strain H99 [2]; [8]", "value": "3.52 log10 CFU/g and 3.51 log10 CFU/g"}, {"measurement": "reduction in lung fungal burden vs untreated control, combined therapy", "setting": "C. neoformans strain H99 [2]; [8]", "value": 1.84, "unit": "log10 CFU/g"}, {"measurement": "reduction in brain fungal burden vs untreated control", "setting": "C. neoformans strain H99 [2]; [9]", "value": 0.78, "unit": "log10 CFU/g"}, {"measurement": "reduction in lung fungal burden vs untreated control", "setting": "C. neoformans strain H99 [2]; [9]", "value": "1.50 log10 CFU/g and 1.5 log10 CFU/g"}, {"measurement": "final numbers of surviving mice", "setting": "[3]", "value": 5}, {"measurement": "bioavailability", "setting": "[4]; phase 1 clinical trials", "value": "> 90", "unit": "%"}, {"measurement": "half-life in humans", "setting": "[4]; phase 1 studies in healthy volunteers", "value": 60, "unit": "h"}, {"measurement": "solubility in water", "setting": "[5]", "value": "soluble in water"}]}
